{
  "source": "PubChem BioAssay (NCI)",
  "test_in_all_cases": "inhibition of tumour cell growth, NCI panel, 48 h",
  "key": {"[1]": {"test_system": "SK-MEL-2 melanoma"}, "[2]": {"test_system": "TK-10 renal"}, "[3]": {"test_system": "SNB-75 CNS"}, "[4]": {"test_system": "IGROV1 ovarian"}, "[5]": {"test_system": "NCI-H23 lung"}, "[6]": {"test_system": "HCT-15 colon"}, "[7]": {"test_system": "HS 578T breast"}, "[8]": {"test_system": "MCF7 breast"}, "[9]": {"test_system": "OVCAR-3 ovarian"}, "[10]": {"test_system": "T-47D breast"}},
  "note": "Where “and” joins values, the source holds several entries; their conditions need not be identical. Equal values may be shown once.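 Compound exposure: 48 hours, 5 concentrations, 96-well plates. GI50 is the concentration that inhibits growth by half. At the TGI there is no net growth.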",
  "data": [
    {"molecule": "CCC1CC(=O)N(SCC(N)C(=O)O)C1=O", "note": "(stereo not given)", "values": [
      {"measurement": "TGI", "setting": "[1]", "result": "> 100", "unit": "µM"},
      {"measurement": "TGI", "setting": "[2]", "result": "> 100", "unit": "µM"},
      {"measurement": "TGI", "setting": "[3]", "result": "> 100", "unit": "µM"},
      {"measurement": "TGI", "setting": "[4]", "result": "> 100", "unit": "µM"},
      {"measurement": "TGI", "setting": "[5]", "result": "> 100", "unit": "µM"},
      {"measurement": "TGI", "setting": "[6]", "result": "> 100", "unit": "µM"},
      {"measurement": "TGI", "setting": "[7]", "result": "> 100", "unit": "µM"},
      {"measurement": "TGI", "setting": "[8]", "result": "> 100", "unit": "µM"},
      {"measurement": "TGI", "setting": "[9]", "result": "> 100", "unit": "µM"},
      {"measurement": "TGI", "setting": "[10]", "result": "> 100", "unit": "µM"}
    ]},
    {"molecule": "COc1cc([C@@H]2c3cc4c(cc3[C@H](O)[C@H]3COC(=O)[C@H]23)OCO4)cc(OC)c1OC", "values": [
      {"measurement": "GI50", "setting": "[1]", "result": "< 0.005", "unit": "µM"},
      {"measurement": "GI50", "setting": "[2]", "result": "< 0.005", "unit": "µM"},
      {"measurement": "TGI", "setting": "[2]", "result": "> 100 µM and 50 µM"},
      {"measurement": "GI50", "setting": "[3]", "result": "< 0.005", "unit": "µM"},
      {"measurement": "GI50", "setting": "[4]", "result": "< 0.005", "unit": "µM"},
      {"measurement": "GI50", "setting": "[5]", "result": "< 0.01", "unit": "µM"},
      {"measurement": "TGI", "setting": "[5]", "result": "> 100 µM and 50 µM and > 7.43 µM"},
      {"measurement": "GI50", "setting": "[6]", "result": "< 0.005", "unit": "µM"},
      {"measurement": "TGI", "setting": "[6]", "result": "> 100 µM and 50 µM"},
      {"measurement": "GI50", "setting": "[7]", "result": "< 0.01", "unit": "µM"},
      {"measurement": "TGI", "setting": "[7]", "result": "> 100 µM and 50 µM and > 94 µM"},
      {"measurement": "GI50", "setting": "[8]", "result": "< 0.01", "unit": "µM"},
      {"measurement": "TGI", "setting": "[8]", "result": "> 100 µM and 10.3 µM"},
      {"measurement": "GI50", "setting": "[9]", "result": "< 0.005", "unit": "µM"},
      {"measurement": "GI50", "setting": "[10]", "result": "> 84.5", "unit": "µM"},
      {"measurement": "TGI", "setting": "[10]", "result": "> 100 µM and 34.1 µM"}
    ]},
    {"molecule": "COc1cccc(C2C3=C(COC3=O)N(CCO)c3cc4c(cc32)OCCO4)c1", "note": "(stereo not given)", "values": [
      {"measurement": "GI50", "setting": "[1]", "result": 0.0396, "unit": "µM"},
      {"measurement": "TGI", "setting": "[1]", "result": 0.219, "unit": "µM"},
      {"measurement": "GI50", "setting": "[2]", "result": 0.891, "unit": "µM"},
      {"measurement": "GI50", "setting": "[3]", "result": 0.0722, "unit": "µM"},
      {"measurement": "TGI", "setting": "[3]", "result": 0.424, "unit": "µM"},
      {"measurement": "GI50", "setting": "[4]", "result": 0.0959, "unit": "µM"},
      {"measurement": "TGI", "setting": "[4]", "result": 0.906, "unit": "µM"},
      {"measurement": "GI50", "setting": "[5]", "result": 0.15, "unit": "µM"},
      {"measurement": "TGI", "setting": "[5]", "result": "> 50", "unit": "µM"},
      {"measurement": "GI50", "setting": "[6]", "result": 0.21, "unit": "µM"},
      {"measurement": "TGI", "setting": "[6]", "result": "> 50", "unit": "µM"},
      {"measurement": "GI50", "setting": "[7]", "result": 0.114, "unit": "µM"},
      {"measurement": "TGI", "setting": "[7]", "result": 22.1, "unit": "µM"},
      {"measurement": "GI50", "setting": "[8]", "result": 0.0396, "unit": "µM"},
      {"measurement": "TGI", "setting": "[8]", "result": "> 50", "unit": "µM"},
      {"measurement": "GI50", "setting": "[9]", "result": 0.0878, "unit": "µM"},
      {"measurement": "TGI", "setting": "[9]", "result": 0.254, "unit": "µM"},
      {"measurement": "GI50", "setting": "[10]", "result": 0.239, "unit": "µM"},
      {"measurement": "TGI", "setting": "[10]", "result": "> 50", "unit": "µM"}
    ]},
    {"molecule": "Cc1ccccc1N=Nc1c(O)[nH]c2ccccc12", "values": [
      {"measurement": "TGI", "setting": "[1]", "result": "> 100", "unit": "µM"},
      {"measurement": "TGI", "setting": "[2]", "result": "> 100", "unit": "µM"},
      {"measurement": "TGI", "setting": "[3]", "result": "> 100", "unit": "µM"},
      {"measurement": "TGI", "setting": "[4]", "result": "> 100", "unit": "µM"},
      {"measurement": "TGI", "setting": "[5]", "result": "> 100", "unit": "µM"},
      {"measurement": "TGI", "setting": "[6]", "result": "> 100", "unit": "µM"},
      {"measurement": "TGI", "setting": "[7]", "result": "> 100", "unit": "µM"},
      {"measurement": "TGI", "setting": "[8]", "result": "> 100", "unit": "µM"},
      {"measurement": "TGI", "setting": "[9]", "result": "> 100", "unit": "µM"},
      {"measurement": "TGI", "setting": "[10]", "result": "> 100", "unit": "µM"}
    ]},
    {"molecule": "CCOC(=O)C1=C(C)NC2SC(=O)/C(=C\\c3ccccc3)N2C1c1ccccc1", "note": "(stereo not given)", "values": [
      {"measurement": "GI50", "setting": "[1]", "result": "> 100", "unit": "µM"},
      {"measurement": "TGI", "setting": "[1]", "result": "> 100", "unit": "µM"},
      {"measurement": "GI50", "setting": "[2]", "result": 56.2, "unit": "µM"},
      {"measurement": "TGI", "setting": "[2]", "result": "> 100", "unit": "µM"},
      {"measurement": "GI50", "setting": "[3]", "result": "> 100", "unit": "µM"},
      {"measurement": "TGI", "setting": "[3]", "result": "> 100", "unit": "µM"},
      {"measurement": "GI50", "setting": "[4]", "result": "> 100", "unit": "µM"},
      {"measurement": "TGI", "setting": "[4]", "result": "> 100", "unit": "µM"},
      {"measurement": "GI50", "setting": "[5]", "result": "> 100", "unit": "µM"},
      {"measurement": "TGI", "setting": "[5]", "result": "> 100", "unit": "µM"},
      {"measurement": "GI50", "setting": "[6]", "result": "> 100", "unit": "µM"},
      {"measurement": "TGI", "setting": "[6]", "result": "> 100", "unit": "µM"},
      {"measurement": "GI50", "setting": "[7]", "result": "> 100", "unit": "µM"},
      {"measurement": "TGI", "setting": "[7]", "result": "> 100", "unit": "µM"},
      {"measurement": "GI50", "setting": "[8]", "result": "> 100", "unit": "µM"},
      {"measurement": "TGI", "setting": "[8]", "result": "> 100", "unit": "µM"},
      {"measurement": "GI50", "setting": "[9]", "result": "> 100", "unit": "µM"},
      {"measurement": "TGI", "setting": "[9]", "result": "> 100", "unit": "µM"},
      {"measurement": "GI50", "setting": "[10]", "result": 38.2, "unit": "µM"},
      {"measurement": "TGI", "setting": "[10]", "result": "> 100", "unit": "µM"}
    ]},
    {"molecule": "O=C1/C(=C\\c2coc3ccccc3c2=O)c2ccccc2N1c1c(Cl)cccc1Cl", "values": [
      {"measurement": "GI50", "setting": "[1]", "result": 2.75, "unit": "µM"},
      {"measurement": "TGI", "setting": "[1]", "result": 6.04, "unit": "µM"},
      {"measurement": "GI50", "setting": "[2]", "result": 3.29, "unit": "µM"},
      {"measurement": "TGI", "setting": "[2]", "result": "> 100", "unit": "µM"},
      {"measurement": "GI50", "setting": "[3]", "result": 1.91, "unit": "µM"},
      {"measurement": "TGI", "setting": "[3]", "result": 37.4, "unit": "µM"},
      {"measurement": "GI50", "setting": "[4]", "result": 1.62, "unit": "µM"},
      {"measurement": "TGI", "setting": "[4]", "result": 5.91, "unit": "µM"},
      {"measurement": "GI50", "setting": "[5]", "result": 4.45, "unit": "µM"},
      {"measurement": "TGI", "setting": "[5]", "result": "> 100", "unit": "µM"},
      {"measurement": "GI50", "setting": "[6]", "result": 0.65, "unit": "µM"},
      {"measurement": "TGI", "setting": "[6]", "result": "> 100", "unit": "µM"},
      {"measurement": "GI50", "setting": "[7]", "result": 9.05, "unit": "µM"},
      {"measurement": "TGI", "setting": "[7]", "result": "> 100", "unit": "µM"},
      {"measurement": "GI50", "setting": "[8]", "result": 3.21, "unit": "µM"},
      {"measurement": "TGI", "setting": "[8]", "result": "> 100", "unit": "µM"},
      {"measurement": "GI50", "setting": "[9]", "result": 2.71, "unit": "µM"},
      {"measurement": "TGI", "setting": "[9]", "result": 10.3, "unit": "µM"},
      {"measurement": "GI50", "setting": "[10]", "result": 3.05, "unit": "µM"},
      {"measurement": "TGI", "setting": "[10]", "result": 31.1, "unit": "µM"}
    ]}
  ]
}
